# Legend:
# Assay type in all cases: physicochemical
# [1] = Chemical stability by HPLC
# Method: Chemical stability of nanosized compound A formulae were investigated by HPLC measurements. They were performed in an Agilent 1100 HPLC waters coupled with ZQ2000 MSD, C18, Phenomenex Gemini-NX 3 micron, 100×3 mm column.
# [2] = Redispersibility in water; details: addition of water at room temperature
# Precipitation test = details: every tested organic solvent at 1 mg/mL concentration
# Method: 1 mg/ml solutions of compound A were prepared in each appropriate solvent.
# [3] = Stabilizer screening (colloid stability after precipitation); details: Compound A 1.0 mg
# Method: If the colloid solution was stable over 2 hours (no aggregation, sedimentation, crystal forming), and no aggregation occurred, the sample was lyophilized. • If precipitation occurred, however the colloid solution was not stable over the whole solid formulation procedure, other stabilizers were tested. Results
smiles,measurement,setting,value
"CC(C)(C)c1cc(-c2cc(-c3ccc(C(=O)O)cc3)ccc2OCCO)ccc1N1CCCC1 [Compound A, 3″-tert-butyl-4′-(2-hydroxyethoxy)-4″-pyrrolidin-1-yl[1,1′;3′,1″]-terphenyl-4-carboxylic acid]",decomposition of the active ingredient in HPLC analysis,[1]; 0.001 M sodium hydroxide solution as antisolvent,decomposition of the active could not be observed
same,decomposition of the active ingredient in HPLC analysis,[1]; 0.01 M sodium hydroxide solution as antisolvent,decomposition of the active could not be observed
same,decomposition of the active ingredient in HPLC analysis,[1]; 0.1 M sodium hydroxide used as antisolvent (data not shown),Significant decomposition
same,Redispersibility,[2],not wetted by water
same,precipitation on addition of anti-solvent,Precipitation test,precipitated
same,Observation,"[3]; 2 mg Klucel EF, 1 mL EtOH, 4 mL water",Aggregated
same,Observation,"[3]; 2 mg Klucel EF, 1 mL IPA, 4 mL water",Aggregated
same,Observation,"[3]; 2 mg Klucel EF, 1 mL MeOH, 4 mL water",Aggregated
same,Observation,"[3]; 2 mg Klucel EF, 1 mL THF, 4 mL water",Aggregated
same,Observation,"[3]; 2 mg Klucel LF, 1 mL EtOH, 4 mL water",Aggregated
same,Observation,"[3]; 2 mg Klucel LF, 1 mL IPA, 4 mL water",Aggregated
same,Observation,"[3]; 2 mg Klucel LF, 1 mL MeOH, 4 mL water",Aggregated
same,Observation,"[3]; 2 mg Klucel LF, 1 mL THF, 4 mL water",Aggregated
same,Observation,"[3]; 2 mg Lutrol F 127, 1 mL ACE, 4 mL water",Aggregated immediately
same,Observation,"[3]; 2 mg Lutrol F 127, 1 mL EtOH, 4 mL water",Aggregated
same,Observation,"[3]; 2 mg Lutrol F 127, 1 mL MeOH, 4 mL water",Cloudy immediately
same,Observation,"[3]; 2 mg Lutrol F 127, 1 mL THF, 5 mL water",Aggregated
same,Observation: Aggregated within,"[3]; 2 mg Luviskol VA64, 1 mL ACE, 4 mL water",Aggregated within 5 min
same,"Observation: Colloid, Stable for","[3]; 2 mg Luviskol VA64, 1 mL EtOH, 4 mL water","Colloid, Stable for 30 min"
same,Observation,"[3]; 2 mg Luviskol VA64, 1 mL EtOH, 7 mL 0.05 mg/mL BAC solution",Aggregated immediately
same,Observation,"[3]; 2 mg Luviskol VA64, 1 mL EtOH, 7 mL 0.05 mg/mL DSS solution",Aggregated immediately
same,Observation,"[3]; 2 mg Luviskol VA64, 1 mL EtOH, 7 mL 0.05 mg/mL Mannitol solution",Aggregated immediately
same,Observation,"[3]; 2 mg Luviskol VA64, 1 mL EtOH, 7 mL 0.05 mg/mL NaOAc solution",Aggregated immediately
same,Observation,"[3]; 2 mg Luviskol VA64, 1 mL EtOH, 7 mL 0.05 mg/mL SDS solution",Aggregated immediately
same,Observation,"[3]; 2 mg Luviskol VA64, 1 mL EtOH, 7 mL 0.05 mg/mL citric acid solution",Aggregated immediately
same,Observation,"[3]; 2 mg Luviskol VA64, 1 mL EtOH, 7 mL 0.5 mg/mL BAC solution",Aggregated immediately
same,Observation: Aggregated within,"[3]; 2 mg Luviskol VA64, 1 mL EtOH, 7 mL 0.5 mg/mL DSS solution",Aggregated within 1 hour
same,Observation,"[3]; 2 mg Luviskol VA64, 1 mL EtOH, 7 mL 0.5 mg/mL Mannitol solution",Aggregated immediately
same,Observation: Stable for,"[3]; 2 mg Luviskol VA64, 1 mL EtOH, 7 mL 0.5 mg/mL NaOAc solution, at RT",Stable for 1 day at RT
same,Observation: Aggregated within,"[3]; 2 mg Luviskol VA64, 1 mL EtOH, 7 mL 0.5 mg/mL SDS solution",Aggregated within 1 hour
same,Observation,"[3]; 2 mg Luviskol VA64, 1 mL EtOH, 7 mL 0.5 mg/mL citric acid solution",Aggregated immediately
same,Observation,"[3]; 2 mg Luviskol VA64, 1 mL IPA, 4 mL water",Aggregated
same,Observation: Aggregated after,"[3]; 2 mg Luviskol VA64, 1 mL MeOH, 4 mL water",Aggregated after 25 min
same,Observation,"[3]; 2 mg Luviskol VA64, 1 mL THF, 4 mL water",Aggregated
same,Observation,"[3]; 2 mg PEG2000, 1 mL ACE, 4 mL water",Aggregated immediately
same,Observation,"[3]; 2 mg PEG2000, 1 mL EtOH, 4 mL water",Aggregated
same,Observation,"[3]; 2 mg PEG2000, 1 mL IPA, 4 mL water",Aggregated
same,Observation,"[3]; 2 mg PEG2000, 1 mL MeOH, 4 mL water",Aggregated
same,Observation,"[3]; 2 mg PEG2000, 1 mL THF, 4 mL water",Aggregated
same,Observation,"[3]; 2 mg PEG6000, 1 mL ACE, 4 mL water",Aggregated immediately
same,Observation,"[3]; 2 mg PEG6000, 1 mL EtOH, 4 mL water",Aggregated
same,Observation,"[3]; 2 mg PEG6000, 1 mL MeOH, 4 mL water",Aggregated
same,Observation: Aggregated within,"[3]; 2 mg PEOX50, 1 mL ACE, 4 mL water",Aggregated within 5 min
same,"Observation: Colloid, Stable for","[3]; 2 mg PEOX50, 1 mL EtOH, 4 mL water","Colloid, Stable for 10 min"
same,Observation: Aggregated within,"[3]; 2 mg PEOX50, 1 mL EtOH, 7 mL 0.5 mg/mL DSS solution",Aggregated within 1 hour
same,Observation: Aggregated within,"[3]; 2 mg PEOX50, 1 mL EtOH, 7 mL 0.5 mg/mL NaOAc solution",Aggregated within 1 hour
same,Observation: Aggregated within,"[3]; 2 mg PEOX50, 1 mL EtOH, 7 mL 0.5 mg/mL SDS solution",Aggregated within 1 hour
same,Observation,"[3]; 2 mg PEOX50, 1 mL EtOH, 7 mL 0.5 mg/mL citric acid solution",Aggregated immediately
same,Observation,"[3]; 2 mg PEOX50, 1 mL IPA, 4 mL water",Aggregated
same,Observation,"[3]; 2 mg PEOX50, 1 mL MeOH, 4 mL water",Aggregated
same,Observation,"[3]; 2 mg PEOX50, 1 mL THF, 4 mL water",Aggregated
same,Observation: Aggregated within,"[3]; 2 mg PEOX500, 1 mL ACE, 4 mL water",Aggregated within 5 min
same,Observation,"[3]; 2 mg PEOX500, 1 mL EtOH, 4 mL water",Aggregated
same,Observation,"[3]; 2 mg PEOX500, 1 mL IPA, 4 mL water",Aggregated
same,Observation,"[3]; 2 mg PEOX500, 1 mL MeOH, 4 mL water",Aggregated
same,Observation,"[3]; 2 mg PEOX500, 1 mL THF, 4 mL water",Aggregated
same,Observation,"[3]; 2 mg PMAMVE, 1 mL EtOH, 4 mL water",Aggregated
same,Observation,"[3]; 2 mg PMAMVE, 1 mL MeOH, 4 mL water",Aggregated
same,"Observation: Colloid, Stable for","[3]; 2 mg PVP10, 1 mL EtOH, 4 mL water","Colloid, Stable for 30 min"
same,Observation,"[3]; 2 mg PVP10, 1 mL EtOH, 7 mL 0.05 mg/mL BAC solution",Aggregated immediately
same,Observation,"[3]; 2 mg PVP10, 1 mL EtOH, 7 mL 0.05 mg/mL DSS solution",Aggregated immediately
same,Observation,"[3]; 2 mg PVP10, 1 mL EtOH, 7 mL 0.05 mg/mL Mannitol solution",Aggregated immediately
same,Observation,"[3]; 2 mg PVP10, 1 mL EtOH, 7 mL 0.05 mg/mL NaOAc solution",Aggregated immediately
same,Observation,"[3]; 2 mg PVP10, 1 mL EtOH, 7 mL 0.05 mg/mL SDS solution",Aggregated immediately
same,Observation,"[3]; 2 mg PVP10, 1 mL EtOH, 7 mL 0.05 mg/mL citric acid solution",Aggregated immediately
same,Observation,"[3]; 2 mg PVP10, 1 mL EtOH, 7 mL 0.5 mg/mL BAC solution",Aggregated immediately
same,Observation: Aggregated within,"[3]; 2 mg PVP10, 1 mL EtOH, 7 mL 0.5 mg/mL DSS solution",Aggregated within 1 hour
same,Observation,"[3]; 2 mg PVP10, 1 mL EtOH, 7 mL 0.5 mg/mL Mannitol solution",Aggregated immediately
same,Observation,"[3]; 2 mg PVP10, 1 mL EtOH, 7 mL 0.5 mg/mL NaOAc solution",Aggregated immediately

# Source: US10925855B2, “Compositions comprising water dispersible nanoparticles of a retinoid compound” (GALDERMA RESEARCH & DEVELOPMENT, priority 2015, dated 2021)
